According to PubChem BioAssay AID328 (DTP/NCI, 2004):
Several values for one entry are separate records, joined by “and”; a condition that tells them apart may be missing. Equal values may be shown once. Toxic doses and inconclusive results are not listed.

Tested on: BDF1 mice, P388 leukemia ip, median survival T/C
Test: NCI In Vivo Anticancer Drug Screen. Data for tumor model P388 Leukemia (intraperitoneal) in B6D2F1 (BDF1) mice
Details: endpoint: median survival time, higher = longer survival
Procedure, shortened: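 Transplantable tumour in mice; compound vs vehicle dosing; survival scored; ratio of treated to control reported.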

[1] = dose: 100.0 mg/kg/injection, schedule: Q04DX003 (ip), vehicle: saline with Tween-80
[2] = dose: 200.0 mg/kg/injection, schedule: Q04DX003 (ip), vehicle: saline with Tween-80
[3] = dose: 100.0 mg/kg/injection, schedule: Q01DX001 (ip), vehicle: Klucel (hydroxypropylcellulose) (HPC)
[4] = dose: 200.0 mg/kg/injection, schedule: Q01DX001 (ip), vehicle: Klucel (hydroxypropylcellulose) (HPC)
[5] = dose: 400.0 mg/kg/injection, schedule: Q01DX001 (ip), vehicle: Klucel (hydroxypropylcellulose) (HPC)
[6] = dose: 50.0 mg/kg/injection, schedule: Q01DX009 (ip), vehicle: saline with Tween-80
[7] = dose: 50.0 mg/kg/injection, schedule: Q04DX003 (ip), vehicle: Klucel (hydroxypropylcellulose) (HPC)
[8] = dose: 100.0 mg/kg/injection, schedule: Q01DX009 (ip), vehicle: saline with Tween-80
[9] = dose: 100.0 mg/kg/injection, schedule: Q04DX003 (ip), vehicle: Klucel (hydroxypropylcellulose) (HPC)
[10] = dose: 200.0 mg/kg/injection, schedule: Q01DX009 (ip), vehicle: saline with Tween-80
[11] = dose: 200.0 mg/kg/injection, schedule: Q04DX003 (ip), vehicle: Klucel (hydroxypropylcellulose) (HPC)
[12] = dose: 25.0 mg/kg/injection, schedule: Q01DX009 (ip), vehicle: saline with Tween-80
[13] = dose: 400.0 mg/kg/injection, schedule: Q04DX003 (ip), vehicle: Klucel (hydroxypropylcellulose) (HPC)
[14] = dose: 100.0 mg/kg/injection, schedule: Q01DX009 (ip), vehicle: Klucel (hydroxypropylcellulose) (HPC)
[15] = dose: 200.0 mg/kg/injection, schedule: Q01DX009 (ip), vehicle: Klucel (hydroxypropylcellulose) (HPC)
[16] = dose: 50.0 mg/kg/injection, schedule: Q01DX009 (ip), vehicle: Klucel (hydroxypropylcellulose) (HPC)

## c1ccc(-c2csc3c4ccccc4c4ccccc4[n+]23)cc1
dose: 0.5 mg/kg/injection, schedule: Q01DX009 (ip), vehicle: saline
  T/C: 100 % of control
dose: 1.0 mg/kg/injection, schedule: Q01DX009 (ip), vehicle: saline
  T/C: 104 % of control
dose: 2.0 mg/kg/injection, schedule: Q01DX009 (ip), vehicle: saline
  T/C: 118 % of control
dose: 4.0 mg/kg/injection, schedule: Q01DX009 (ip), vehicle: saline
  T/C: 113 % of control
dose: 8.0 mg/kg/injection, schedule: Q01DX009 (ip), vehicle: saline
  T/C: 100 % of control

## CCCCC(CC)(CC(=O)O)CC(=O)O
dose: 40.0 mg/kg/injection, schedule: Q01DX010 (ip), vehicle: water
  T/C: 118 % of control

## Cc1ccc(CO)cc1C
dose: 50.0 mg/kg/injection, schedule: Q04DX003 (ip), vehicle: saline with Tween-80
  T/C: 100 % of control
[1]
  T/C: 100 % of control
[2]
  T/C: 104 % of control

## CC(=O)OC12C3CCCC1CCCC2CCC3 (stereo not given)
[3]
  T/C: 100 % of control
[4]
  T/C: 100 % of control
[5]
  T/C: 100 % of control

## Cc1cc(OC(=O)Nc2cccc(Cl)c2C)ccc1Cl
[1]
  T/C: 104 % of control
[2]
  T/C: 104 % of control
dose: 400.0 mg/kg/injection, schedule: Q04DX003 (ip), vehicle: saline with Tween-80
  T/C: 109 % of control

## C[N+]1(C)N=C([O-])N(CCCCCCN2C(=O)[N+](C)(C)N=C2[O-])C1=O
dose: 100.0 mg/kg/injection, schedule: Q04DX003 (ip), vehicle: suspension in saline
  T/C: 94 % of control
dose: 200.0 mg/kg/injection, schedule: Q04DX003 (ip), vehicle: suspension in saline
  T/C: 96 % of control
dose: 400.0 mg/kg/injection, schedule: Q04DX003 (ip), vehicle: suspension in saline
  T/C: 98 % of control

## O=[N+]([O-])c1ccc(S(=O)(=O)Oc2ccccc2)cc1
[6]
  T/C: 105 % of control
[7]
  T/C: 100 % of control
[8]
  T/C: 100 % of control
[9]
  T/C: 105 % of control
[10]
  T/C: 105 % of control
[11]
  T/C: 105 % of control

## FC(Cl)(Cl)c1nc2nc(Cl)c(Cl)nc2[nH]1
dose: 3.12 mg/kg/injection, schedule: Q01DX009 (ip), vehicle: water
  T/C: 104 % of control
dose: 6.25 mg/kg/injection, schedule: Q01DX009 (ip), vehicle: water
  T/C: 107 % of control
dose: 6.25 mg/kg/injection, schedule: Q04DX003 (ip), vehicle: water
  T/C: 116 % of control
dose: 12.5 mg/kg/injection, schedule: Q01DX009 (ip), vehicle: water
  T/C: 100 % of control
dose: 12.5 mg/kg/injection, schedule: Q04DX003 (ip), vehicle: water
  T/C: 116 % of control
dose: 25.0 mg/kg/injection, schedule: Q01DX009 (ip), vehicle: water
  T/C: 108 % of control
dose: 25.0 mg/kg/injection, schedule: Q04DX003 (ip), vehicle: water
  T/C: 102 % of control
dose: 50.0 mg/kg/injection, schedule: Q01DX009 (ip), vehicle: water
  T/C: 118 % of control
dose: 50.0 mg/kg/injection, schedule: Q04DX003 (ip), vehicle: water
  T/C: 116 % of control
dose: 100.0 mg/kg/injection, schedule: Q01DX009 (ip), vehicle: water
  T/C: 101 % of control
dose: 100.0 mg/kg/injection, schedule: Q04DX003 (ip), vehicle: water
  T/C: 102 % of control

## Oc1cccc2ccc(CC(O)(c3ccccc3)c3ccccc3)nc12
[12]
  T/C: 108 % of control
[6]
  T/C: 99 % of control
[8]
  T/C: 108 % of control

## CN1C(=O)Cc2[nH]ccc2C1=O
dose: 3.13 mg/kg/injection, schedule: Q04DX003 (ip), vehicle: saline with Tween-80
  T/C: 106 % of control
dose: 6.25 mg/kg/injection, schedule: Q04DX003 (ip), vehicle: saline with Tween-80
  T/C: 109 % of control
dose: 12.5 mg/kg/injection, schedule: Q04DX003 (ip), vehicle: saline with Tween-80
  T/C: 119 % of control and 120 % of control
dose: 25.0 mg/kg/injection, schedule: Q04DX003 (ip), vehicle: saline with Tween-80
  T/C: 118 % of control

## Nc1ccc(OCc2ccc(C(=O)Nc3cccc(S(=O)(=O)F)c3)cc2)c(Cl)c1
[8]
  T/C: 91 % of control
[9]
  T/C: 100 % of control
[10]
  T/C: 91 % of control
[11]
  T/C: 100 % of control
dose: 400.0 mg/kg/injection, schedule: Q01DX009 (ip), vehicle: saline with Tween-80
  T/C: 100 % of control
[13]
  T/C: 100 % of control

## NC(=S)N/N=C/c1ccccc1N
[3]
  T/C: 104 % of control
[4]
  T/C: 104 % of control
[5]
  T/C: 108 % of control

## C/C(=N\NC(=O)CC(=O)N/N=C(\C)c1ccccc1)c1ccccc1
dose: 75.0 mg/kg/injection, schedule: Q01DX009 (ip), vehicle: saline with Tween-80
  T/C: 91 % of control
dose: 150.0 mg/kg/injection, schedule: Q01DX009 (ip), vehicle: saline with Tween-80
  T/C: 99 % of control
dose: 300.0 mg/kg/injection, schedule: Q01DX009 (ip), vehicle: saline with Tween-80
  T/C: 90 % of control

## CCOC(=S)SCC(=O)Nc1ccccc1
[12]
  T/C: 93 % of control
[6]
  T/C: 90 % of control
[8]
  T/C: 103 % of control

## CCCCCCCOC(C[N+](=O)[O-])C(Cl)(Cl)Cl (stereo not given)
dose: 12.5 mg/kg/injection, schedule: Q01DX009 (ip), vehicle: saline
  T/C: 120 % of control
dose: 25.0 mg/kg/injection, schedule: Q01DX009 (ip), vehicle: saline
  T/C: 120 % of control
dose: 37.5 mg/kg/injection, schedule: Q04DX003 (ip), vehicle: saline
  T/C: 100 % of control
dose: 50.0 mg/kg/injection, schedule: Q01DX009 (ip), vehicle: saline
  T/C: 120 % of control
dose: 75.0 mg/kg/injection, schedule: Q04DX003 (ip), vehicle: saline
  T/C: 95 % of control
dose: 150.0 mg/kg/injection, schedule: Q04DX003 (ip), vehicle: saline
  T/C: 95 % of control
dose: 340.0 mg/kg/injection, schedule: Q04DX003 (ip), vehicle: saline
  T/C: 90 % of control

## Cc1nc2[nH][nH]c(=O)c2nc1C
[14]
  T/C: 100 % of control
[9]
  T/C: 104 % of control
[15]
  T/C: 110 % of control
[11]
  T/C: 92 % of control
[13]
  T/C: 100 % of control

## CCOC(=O)C(C)C(=O)Cc1cc(OC)c(C)cc1Br (stereo not given)
[7]
  T/C: 100 % of control
[14]
  T/C: 110 % of control
[9]
  T/C: 91 % of control
[15]
  T/C: 105 % of control
[11]
  T/C: 95 % of control
dose: 400.0 mg/kg/injection, schedule: Q01DX009 (ip), vehicle: Klucel (hydroxypropylcellulose) (HPC)
  T/C: 100 % of control
[13]
  T/C: 95 % of control

## OC(CNc1ccc(Cl)cc1)COc1ccc(Cl)cc1Cl (stereo not given)
[16]
  T/C: 100 % of control
[14]
  T/C: 101 % of control
[15]
  T/C: 102 % of control

## Nc1nc(=S)[nH]c(C(=O)O)c1Cc1ccccc1
dose: 25.0 mg/kg/injection, schedule: Q01DX009 (ip), vehicle: Klucel (hydroxypropylcellulose) (HPC)
  T/C: 109 % of control
[16]
  T/C: 86 % of control and 115 % of control
[14]
  T/C: 115 % of control
[15]
  T/C: 120 % of control

## CCC(C(=O)O)C(=O)O.[NH-]CC[NH-].[Pt+2]
dose: 25.0 mg/kg/injection, schedule: Q04DX003 (ip), vehicle: saline
  T/C: 100 % of control
dose: 33.0 mg/kg/injection, schedule: Q04DX003 (ip), vehicle: saline
  T/C: 118 % of control
dose: 50.0 mg/kg/injection, schedule: Q04DX003 (ip), vehicle: saline
  T/C: 154 % of control

## O=P(N1CC1)(N1CC1)N1CC1
dose: 3.0 mg/kg/injection, schedule: Q01DX010 (ip), vehicle: saline
  T/C: 204 % of control

## O=CCSC(=S)NNc1ccccc1
dose: 75.0 mg/kg/injection, schedule: Q01DX001 (ip), vehicle: Klucel (hydroxypropylcellulose) (HPC)
  T/C: 110 % of control
dose: 150.0 mg/kg/injection, schedule: Q01DX001 (ip), vehicle: Klucel (hydroxypropylcellulose) (HPC)
  T/C: 105 % of control
dose: 300.0 mg/kg/injection, schedule: Q01DX001 (ip), vehicle: Klucel (hydroxypropylcellulose) (HPC)
  T/C: 95 % of control
